# Laboratory results published in patent US12433875B2, “(R)-4-(1-(6-(4-(trifluoromethyl)benzyl)-6-azaspiro[2.5]octane-5-carboxamido)-cyclopropyl) benzoic acid or its salt also in polymorphic form a for use in the prevention of heterotopic ossification” (ROTTAPHARM BIOTECH S.R.L., priority 2019, dated 2025).
# Key:
# [1] = system: Male Lewis rats (CIA model, heterotopic bone formation); assay: Collagen Induce Arthritis (CIA) in rats, histological scores; assay type: in vivo, rat
# Source text: Collagen Induce Arthritis (CIA) in rats is among the most common models used to mimic human arthritis and especially Rheumatoid Arthritis (RA). In general the joint response seen in this model is quite similar to that observed in human pathology, in terms of inflammation, bone erosion and cartilage damage. Nevertheless, this model differs from Rheumatoid Arthritis, since it is endowed with a consistent periosteal woven bone formation (immature bone) that is not a usual feature of human RA (maybe, less than 10% of patients have this type of bone reaction). On the contrary, this disordered apposition of new bone is the distinctive feature of heterotopic ossification. Therefore, this model was used to study the effect of the compound of the invention in Pathological heretopic osteogenesis.
# Male Lewis rats were immunized by intradermal injection at the base of the tail with an emulsion containing 150 μg of bovine collagen type II (bCII) in complete Freund's adjuvant (CFA) or received an injection with incomplete Freund's adjuvant (sham group). Three weeks after the first immunisation, animals were boosted with the same procedure. Three days after booster injection, arthritis had developed in all animals but the sham group. The administration of the compound (1) Form A started at this time point and lasted for 14 days (once a day, unless otherwise indicated).
# The paws were fixed in 10% neutral buffered formalin (Bio-Optica, Milan, Italy) and subsequently decalcified in EDTA for 4 weeks. Samples were dehydrated in an ethanol series and embedded in paraffin. At least three non-consecutive sections for each paw were blindly scored at the level of the tarsus, metatarsus and calcaneus for the following histological features of woven bone. Two independent pathologists performed histopathology on blinded slides. The data of right and left hind limbs were summed for each rat.
# In FIG. 3 the dose-response curve for the compound of the invention is reported. the compound was administered once a day for 14 days on the site where the pathological bone formation was expected as induced in the CIA model in rats. The dose were 1 mg/Kg, 3 mg/kg and 10 mg/kg. The data were expressed as the median (boxed area), 95% interquartile range (whiskers), and individual data (symbols) of the histological scores for heterotopic bone formation (osteogenesis) given by two pathologists unaware of the treatment groups on a following scale: 0=absent; 1=mild/focal; 2=moderate/multifocal; 3=severe/multifocal to diffuse. Since arthritis was bilateral, the scores for each rat was the sum of the two leg scores. […] The compound reached the maximal activity at 10 mg/kg.
# The data were expressed as the median histological scores for heterotopic bone formation (osteogenesis) as described for FIG. 3. […] As for osteogenesis, the data reported in this graph were the median (boxed area), 95% interquartile range (whiskers), and individual data (symbols) of the histological scores for synovial hyperplasia (oedema) given by two pathologists unaware of the treatment groups on a following scale: 0=normal: 1-2 layers of synovial lining cells, 1=mild: focal to multifocal 3-4 layers of synovial lining cells and/or mild proliferation of subsynovial tissue, 2=moderate: focal to mutlitfocal >4-6 layers of synovial lining cells and/or moderate proliferation of subsynovial tissue, 3=severe: multifocal to diffuse >6-8 layers of synovial lining cells and/or severe proliferation of subsynovial tissue. Since arthritis was bilateral, the scores for each rat is the sum of the two leg scores. This underline a preferential and surprising effect of (R)-4-(1-(6-(4-(trifluoromethyl)benzyl)-6-azaspiro[2.5]octane-5-carboxamido)cyclopropyl)benzoic acid on the heterotopic bone formation, […].
# The free acid form has been assayed in the rat CIA model as already described for its sodium salt (Form A). […]
# [2] = system: Male DBA/1 mice (CIA model); assay: CIA in mice, histology of heterotopic bone formation; assay type: in vivo; details: 60 mg/kg once daily for 10 days, FIG. 9
# Experimental: CIA in mice is another very popular translational model to mimic human arthritis. […] Male DBA/1 mice were immunized by intradermal injection at the base of the tail with an emulsion of 200 μg of bCII in CFA containing 3 mg/ml Mycobacterium tuberculosis. Non-immunized mice served as the negative control of disease. Animals were monitored by visual inspection for appearance of peripheral edema. […] Upon onset, animals were recruited and randomized. Recruitment was given a cut-off at day 40. Upon recruitment, arthritis clinical score was assigned, and edema was measured via caliper. Mice were randomized into the following groups: vehicle, 30 mg/kg the form A of the sodium salt of (R)-4-(1-(6-(4-(trifluoromethyl)benzyl)-6-azaspiro[2.5]octane-5-carboxamido)cyclopropyl)benzoic acid, 60 mg/kg the form A of the sodium salt of (R)-4-(1-(6-(4-(trifluoromethyl)benzyl)-6-azaspiro[2.5]octane-5-carboxamido)cyclopropyl)benzoic acid and 60 mg/kg naproxen. Animals received the test drugs once daily for 10 days. Histology was performed as described for rats.
structure (smiles),measurement,setting,value
"O=C(O)c1ccc(C2(NC(=O)[C@H]3CC4(CCN3Cc3ccc(C(F)(F)F)cc3)CC4)CC2)cc1 [free acid, (R)-4-(1-(6-(4-(trifluoromethyl)benzyl)-6-azaspiro[2.5]octane-5-carboxamido)cyclopropyl)benzoic acid]",potency in controlling osteogenesis compared with tofacitinib,[1]; free acid orally 15 mg/kg once a day vs tofacitinib 5 or 25 mg/kg b.i.d.,superior
"COc1ccc2cc([C@H](C)C(=O)O)ccc2c1 [naproxen, reference compound]",new heterotopic bone formation (histology),[2],not able to significantly affect new heterotopic bone formation
"CS(=O)(=O)c1ccc(C2=C(c3ccccc3)C(=O)OC2)cc1 [rofecoxib, reference compound]",control of the inflammatory response (edema; histological scores for synovial hyperplasia),"[1]; 15 mg/kg each, FIG. 6b",equally effective
"C[C@@H]1CCN(C(=O)CC#N)C[C@@H]1N(C)c1ncnc2[nH]ccc12 [tofacitinib, reference compound]",effect in controlling osteogenesis relative to the free acid at 15 mg/kg QD,[1]; tofacitinib 25 mg/kg b.i.d. (daily dose more than three times higher),reached the same effect in controlling osteogenesis
